What was measured:
Format in all cases: in vivo
[1] = system: Ipomoea hederacea (IPOHE); test: B1 Post-emergence efficacy Test 1; conditions: post-emergence application, 1000 g/ha, evaluated after 13 days
Procedure, shortened: (§1)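 Plants sprayed 8 days after sowing with compound at 1000 g/ha in acetone/water (50:50) with 0.5% Tween 20; glasshouse at 24/16 °C day/night, 14 h light, 65% humidity. Damage scored 13 days later on a five-point scale (5=80-100% to 1=0-19%).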

Setaria faberi (SETFA) = test: B1 Post-emergence efficacy Test 1; conditions: post-emergence application, 1000 g/ha, evaluated after 13 days
Procedure, shortened: as §1

[2] = system: Amaranthus retoflexus (AMARE); test: B1 Post-emergence efficacy Test 1; conditions: post-emergence application, 1000 g/ha, evaluated after 13 days
Procedure, shortened: as §1

Solanum nigrum (SOLNI) = test: B1 Post-emergence efficacy Test 1; conditions: post-emergence application, 1000 g/ha, evaluated after 13 days
Procedure, shortened: as §1

[3] = system: Echinochloa crus-galli (ECHCG); test: B1 Post-emergence efficacy Test 1; conditions: post-emergence application, 1000 g/ha, evaluated after 13 days
Procedure, shortened: as §1

Lolium perenne (LOLPE) = test: B1 Post-emergence efficacy Test 1; conditions: post-emergence application, 1000 g/ha, evaluated after 13 days
Procedure, shortened: as §1

[4] = system: warm season plant species; test: B2 Post-emergence efficacy Test 2, warm season plant species; conditions: 15 days after application, 0-100 scale, 0=no damage, 100=total kill; for Herbicidal activity, ABUTH: Abutilon theophrasti; for Herbicidal activity, AMARE: Amaranthus retroflexus; for Herbicidal activity, BIDPI: Bidens pilosa; for Herbicidal activity, BRAPL: Brachiaria plantaginea; for Herbicidal activity, DIGSA: Digitaria sanguinalis; for Herbicidal activity, ECHCG: Echinochloa crus galli; for Herbicidal activity, ELEIN: Eleisine indica; for Herbicidal activity, EPHHL: Euphorbia hetrophylla; for Herbicidal activity, GLXMA: Glycine max; for Herbicidal activity, IPOHE: Ipomoea hederacea; for Herbicidal activity, ORYSA: Orysa sativa; for Herbicidal activity, PANMI: Panicum miliaceum; for Herbicidal activity, SETFA: Setaria faberi; for Herbicidal activity, SIDSP: Sida spinosa; for Herbicidal activity, SORVU: Sorghum bicolour; for Herbicidal activity, XANST: Xanthium strumarium; for Herbicidal activity, ZEAMX: Zea mays
Procedure, shortened: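 Herbicidal effect rated visually 0 (no damage) to 100 (complete kill) at 15 days post-treatment. Post-emergence spray at 12 days used an IF50 formulation with 0.2% v/v Genapol XO80 adjuvant; glasshouse 24/18 or 20/16 °C, 16 h light, 65% humidity.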

## Cc1nn(C)c(=O)c(-c2c(F)ccc(Cl)c2CCc2ccc(Cl)cc2)c1OC(=O)C(C)C [Compound 1.089]
[1]
  percentage damage caused to the plant, five point scale, IPOHE: 5 (5=80-100%)
Setaria faberi (SETFA)
  percentage damage caused to the plant, five point scale, SETFA: 5 (5=80-100%)
[2]
  percentage damage caused to the plant, five point scale, AMARE: 5 (5=80-100%)
Solanum nigrum (SOLNI)
  percentage damage caused to the plant, five point scale, SOLNI: 5 (5=80-100%)
[3]
  percentage damage caused to the plant, five point scale, ECHCG: 5 (5=80-100%)
Lolium perenne (LOLPE)
  percentage damage caused to the plant, five point scale, LOLPE: 5 (5=80-100%)
[4]; 15 g/Ha
  Herbicidal activity, ABUTH: 70
  Herbicidal activity, AMARE: 80
  Herbicidal activity, BIDPI: 70
  Herbicidal activity, BRAPL: 80
  Herbicidal activity, DIGSA: 0
  Herbicidal activity, ECHCG: 80
  Herbicidal activity, ELEIN: 0
  Herbicidal activity, EPHHL: 80
  Herbicidal activity, IPOHE: 100
  Herbicidal activity, ORYSA: 0
  Herbicidal activity, PANMI: 0
  Herbicidal activity, SETFA: 0
  Herbicidal activity, SORVU: 0
  Herbicidal activity, ZEAMX: 0
[4]; 30 g/Ha
  Herbicidal activity, ABUTH: 90
  Herbicidal activity, AMARE: 80
  Herbicidal activity, BIDPI: 60
  Herbicidal activity, BRAPL: 90
  Herbicidal activity, DIGSA: 0
  Herbicidal activity, ECHCG: 80
  Herbicidal activity, ELEIN: 0
  Herbicidal activity, EPHHL: 100
  Herbicidal activity, GLXMA: 70
  Herbicidal activity, IPOHE: 100
  Herbicidal activity, ORYSA: 0
  Herbicidal activity, PANMI: 20
  Herbicidal activity, SETFA: 20
  Herbicidal activity, SIDSP: 80
  Herbicidal activity, SORVU: 60
  Herbicidal activity, XANST: 90
  Herbicidal activity, ZEAMX: 20
[4]; 60 g/Ha
  Herbicidal activity, ABUTH: 100
  Herbicidal activity, AMARE: 90
  Herbicidal activity, BIDPI: 70
  Herbicidal activity, DIGSA: 0
  Herbicidal activity, ECHCG: 80
  Herbicidal activity, ELEIN: 70
  Herbicidal activity, EPHHL: 100
  Herbicidal activity, GLXMA: 80
  Herbicidal activity, IPOHE: 100
  Herbicidal activity, ORYSA: 0
  Herbicidal activity, PANMI: 50
  Herbicidal activity, SETFA: 30
  Herbicidal activity, SIDSP: 90
  Herbicidal activity, SORVU: 70
  Herbicidal activity, XANST: 80
  Herbicidal activity, ZEAMX: 30
[4]; 125 g/Ha
  Herbicidal activity, ABUTH: 100
  Herbicidal activity, AMARE: 100
  Herbicidal activity, BIDPI: 80
  Herbicidal activity, DIGSA: 10
  Herbicidal activity, ECHCG: 90
  Herbicidal activity, ELEIN: 80
  Herbicidal activity, EPHHL: 100
  Herbicidal activity, IPOHE: 100
  Herbicidal activity, ORYSA: 10
  Herbicidal activity, PANMI: 60
  Herbicidal activity, SETFA: 60
  Herbicidal activity, SIDSP: 100
  Herbicidal activity, SORVU: 90
  Herbicidal activity, XANST: 90
  Herbicidal activity, ZEAMX: 30
[4]; 250 g/Ha
  Herbicidal activity, ABUTH: 100
  Herbicidal activity, AMARE: 100
  Herbicidal activity, BIDPI: 80
  Herbicidal activity, BRAPL: 90
  Herbicidal activity, DIGSA: 40
  Herbicidal activity, ECHCG: 90
  Herbicidal activity, ELEIN: 90
  Herbicidal activity, EPHHL: 100
  Herbicidal activity, GLXMA: 100
  Herbicidal activity, IPOHE: 100
  Herbicidal activity, ORYSA: 20
  Herbicidal activity, PANMI: 80
  Herbicidal activity, SETFA: 60
  Herbicidal activity, SIDSP: 100
  Herbicidal activity, SORVU: 90
  Herbicidal activity, XANST: 90
  Herbicidal activity, ZEAMX: 90
[4]; 500 g/Ha
  Herbicidal activity, ABUTH: 100
  Herbicidal activity, AMARE: 100
  Herbicidal activity, BIDPI: 100
  Herbicidal activity, BRAPL: 90
  Herbicidal activity, DIGSA: 30
  Herbicidal activity, ECHCG: 100
  Herbicidal activity, ELEIN: 90
  Herbicidal activity, EPHHL: 100
  Herbicidal activity, GLXMA: 100
  Herbicidal activity, IPOHE: 100
  Herbicidal activity, ORYSA: 50
  Herbicidal activity, PANMI: 90
  Herbicidal activity, SETFA: 80
  Herbicidal activity, SIDSP: 100
  Herbicidal activity, SORVU: 90
  Herbicidal activity, XANST: 100
  Herbicidal activity, ZEAMX: 100

Reference: patent US12162840B2, “Herbicidal compositions” (SYNGENTA PARTICIPATIONS AG, priority 2018, dated 2024)
